The target in experiment [1] is T1, G1 APOL1 (Homo sapiens, UniProt O14791, I384M/S342G).
T1 construct: expressed in transfected cells
T1 sequence (O14791 28-398 S342G/I384M): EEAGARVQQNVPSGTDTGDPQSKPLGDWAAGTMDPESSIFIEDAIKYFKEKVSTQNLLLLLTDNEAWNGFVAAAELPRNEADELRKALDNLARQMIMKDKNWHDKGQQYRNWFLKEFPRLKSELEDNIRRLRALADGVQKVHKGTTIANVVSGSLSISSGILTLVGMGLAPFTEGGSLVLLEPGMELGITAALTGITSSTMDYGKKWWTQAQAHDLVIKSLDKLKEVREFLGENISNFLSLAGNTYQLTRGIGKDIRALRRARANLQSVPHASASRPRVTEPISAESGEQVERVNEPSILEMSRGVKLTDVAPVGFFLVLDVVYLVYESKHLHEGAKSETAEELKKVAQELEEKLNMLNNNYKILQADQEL
In words: Acute APOL1 Thallium Assay with inducible stable clones of HEK 293 cells. The format is cell-based. To be noted: HEK 293 T-Rex inducible stable clone expressing G1 APOL1; read-out: Thallium Assay (IC50). The method, boiled down: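 A tetracycline-inducible HEK293 T-Rex clone (G1 DC3.25) expressing G1 APOL1 was plated at 26,000 cells/well, with tetracycline added at plating to induce expression. Cells were loaded with an AM-ester thallium-sensitive dye and stimulated with Tl+. Pore activity was read as the FLIPR Tetra fluorescence increase from Tl+ influx.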

The target in experiment [2] is T2, APOL1 G1 Protein (Homo sapiens, UniProt O14791, I384M/S342G).
T2 sequence (O14791 28-398 S342G/I384M): T1 sequence (O14791 28-398 S342G/I384M)
As to the kind of experiment: Trypanosoma brucei brucei lysis assay using APOL1 recombinant protein (AlamarBlue viability). The format is cell-based. To be noted: Trypanosoma brucei brucei lysis with recombinant APOL1 protein.

The IC50 is the concentration that gives 50% inhibition.

Where a name gives a salt, the structure may show the parent alone.

As for `Cc1cccc(-c2[nH]c3c(F)cc(F)cc3c2C2CC(CN)C2)c1` (stereo not drawn) [Compound 181], the IC50 in experiment [1] and in experiment [2] was below 250 nM in each case. Take `NC1CCC(c2c(-c3ccc(F)cc3)[nH]c3c(F)cc(F)cc23)CC1` (stereo not drawn) [Compound 433, 4-[5,7-difluoro-2-(4-fluorophenyl)-1H-indol-3-yl]cyclohexanamine]: the IC50 in experiment [1] and in experiment [2] was below 250 nM in each case. For `NC[C@H]1C[C@@H](c2c(-c3ccc(F)cc3)[nH]c3c(F)cc(F)cc32)C1` [Compound 187, ((1s,3s)-3-(5,7-difluoro-2-(4-fluorophenyl)-1H-indol-3-yl)cyclobutyl)methanamine], the IC50 in experiment [1] and in experiment [2] was below 250 nM in each case. As for `O=C(N[C@H]1C[C@H](c2c(-c3ccc(F)cc3)[nH]c3c(F)cc(F)cc32)C1)C1COC1` [Compound 131], the IC50 in experiment [1] was 250 to 1000 nM.

Take `CC(=O)NC[C@]1(O)C[C@@H](c2c(-c3ccc(F)cc3)[nH]c3c(F)cc(F)cc32)C1` [Compound 431, N-(((1s,3s)-3-(5,7-difluoro-2-(4-fluorophenyl)-1H-indol-3-yl)-1-hydroxycyclobutyl)methyl)acetamide]: the IC50 in experiment [1] was above 1000 nM. As to `CC(CO)(CO)NS(=O)(=O)NC[C@H]1C[C@H](c2c(-c3ccc(F)cc3)[nH]c3c(F)cc(F)cc32)C1` [Compound 365], the IC50 in experiment [1] is above 1000 nM.

Turning to `C[C@@H](O)CNCC1CC(c2c(-c3ccc(F)cc3)[nH]c3c(F)cc(F)cc23)C1` (stereo partly drawn) [Compound 383], the concentration for half-maximal inhibition (IC50) in experiment [1] is 250 to 1000 nM.

In the case of `O=S(=O)(CCO)N[C@H]1C[C@H](c2c(-c3ccc(F)cc3)[nH]c3c(F)cc(F)cc32)C1` [Compound 146], the IC50 in experiment [1] is below 250 nM. On to `O=C(NC[C@H]1C[C@@H](c2c(-c3ccc(F)cc3)[nH]c3c(F)cc(F)cc32)C1)C1(O)CC1` [Compound 234], for which the IC50 in experiment [1] is above 1000 nM. Take `O=C(N[C@H]1C[C@H](c2c(-c3ccc(F)cc3)[nH]c3c(F)cc(F)cc32)C1)OCc1ccccc1` [Compound 88]: in experiment [1], the IC50 was above 1000 nM. Take `O=C(CC1CS(=O)(=O)C1)NC[C@H]1C[C@@H](c2c(-c3ccc(F)cc3)[nH]c3c(F)cc(F)cc32)C1` [Compound 231]: the half-maximal inhibitory concentration (IC50) in experiment [1] is above 1000 nM.

With `NS(=O)(=O)CCCC(=O)N[C@H]1C[C@@H](c2c(-c3ccc(F)cc3)[nH]c3c(F)cc(F)cc32)C1` [Compound 58], the IC50 in experiment [1] was 250 to 1000 nM. Same read-out and setting: as for `NS(=O)(=O)CCC(=O)NC[C@H]1C[C@@H](c2c(-c3ccc(F)cc3)[nH]c3c(F)cc(F)cc32)C1` [Compound 232], the figure is above 1000 nM. As for `NC1CC(c2c(-c3ccc(C4CC4)cc3)[nH]c3ccc(F)cc23)C1` (stereo not drawn) [Compound 7, 3-[2-(4-cyclopropylphenyl)-5-fluoro-1H-indol-3-yl]cyclobutanamine], the IC50 in experiment [1] lay within 250 to 1000 nM. The same measure, in the same setting: as for `OC1CC(NCC2CC(c3c(-c4ccc(F)cc4)[nH]c4c(F)cc(F)cc34)C2)C1` (stereo not drawn) [Compound 377], the figure is 250 to 1000 nM; as for `CC1(C(=O)N[C@H]2C[C@H](c3c(-c4ccc(F)cc4)[nH]c4c(F)cc(F)cc43)C2)CC(=O)C1` [Compound 94], 250 to 1000 nM; as for `O=C(NC[C@H]1C[C@H](c2c(-c3ccc(F)cc3)[nH]c3c(F)cc(F)cc32)C1)[C@@H]1C[C@H](F)CN1` [Compound 246], above 1000 nM. As for `O=C(Cc1cnccn1)NC[C@H]1C[C@H](c2c(-c3ccc(F)cc3)[nH]c3c(F)cc(F)cc32)C1` [Compound 238], in experiment [1], the IC50 was above 1000 nM. Turning to `COC1(CC(=O)NC[C@H]2C[C@@H](c3c(-c4ccc(F)cc4)[nH]c4c(F)cc(F)cc43)C2)CCC1` [Compound 324], in experiment [1], the IC50 is above 1000 nM.

As for `O[C@H]1C[C@@H](c2c(-c3ccc(F)cc3)[nH]c3c(F)cc(F)cc32)C1` [Compound 175, (1s,3s)-3-(5,7-difluoro-2-(4-fluorophenyl)-1H-indol-3-yl)cyclobutan-1-ol], the IC50 in experiment [1] lay within 250 to 1000 nM.

Regarding `O=C1CCCN1CCCNS(=O)(=O)NC[C@H]1C[C@H](c2c(-c3ccc(F)cc3)[nH]c3c(F)cc(F)cc32)C1` [Compound 335], the IC50 in experiment [1] was above 1000 nM. As for `NS(=O)(=O)CCC(=O)N[C@H]1C[C@@H](c2c(-c3ccc(F)cc3)[nH]c3c(F)cc(F)cc32)C1` [Compound 51], the IC50 in experiment [1] was above 1000 nM. The same measure, in the same setting: as for `O=C(CC1CS(=O)(=O)C1)N[C@H]1C[C@H](c2c(-c3ccc(F)cc3)[nH]c3c(F)cc(F)cc32)C1` [Compound 101], the figure is above 1000 nM. For `O=C(CC1CCCOC1)N[C@H]1C[C@H](c2c(-c3ccc(F)cc3)[nH]c3c(F)cc(F)cc32)C1` (stereo partly drawn) [Compound 118], the IC50 in experiment [1] is above 1000 nM.

For the molecule `CS(=O)(=O)CCC(=O)N[C@H]1C[C@H](c2c(-c3ccc(F)cc3)[nH]c3c(F)cc(F)cc32)C1` [Compound 119], the IC50 in experiment [1] is above 1000 nM. As for `CC(C)(O)C(=O)N[C@H]1C[C@@H](c2c(-c3ccc(F)cc3)[nH]c3c(F)cc(F)cc32)C1` [Compound 74], the IC50 in experiment [1] lay within 250 to 1000 nM. As for `O=C(CN1CCOCC1)N[C@H]1C[C@@H](c2c(-c3ccc(F)cc3)[nH]c3c(F)cc(F)cc32)C1` [Compound 57], in experiment [1], the IC50 is above 1000 nM.

In the case of `CC[C@@H](N)C(=O)NC[C@H]1C[C@H](c2c(-c3ccc(F)cc3)[nH]c3c(F)cc(F)cc32)C1` [Compound 267], the IC50 in experiment [1] is above 1000 nM.

Consider `O=C(NC[C@H]1C[C@H](c2c(-c3ccc(F)cc3)[nH]c3c(F)cc(F)cc32)C1)c1ncccn1` [Compound 265], for which the 50% inhibitory concentration (IC50) in experiment [1] was above 1000 nM. For the molecule `CC(C)(C)OC(=O)NCC(=O)NC[C@H]1C[C@@H](c2c(-c3ccc(F)cc3)[nH]c3c(F)cc(F)cc32)C1` [Compound 212], in experiment [1], the IC50 lay in the range of 250 to 1000 nM. For `CC(CCO)NS(=O)(=O)NC[C@H]1C[C@H](c2c(-c3ccc(F)cc3)[nH]c3c(F)cc(F)cc32)C1` (mixture of isomers) [Compound 362], in experiment [1], the IC50 is 250 to 1000 nM. For the molecule `O=S(=O)(N[C@H]1C[C@H](c2c(-c3ccc(F)cc3)[nH]c3c(F)cc(F)cc32)C1)c1cn[nH]c1` [Compound 145, N-[(1r,3r)-3-[5,7-difluoro-2-(4-fluorophenyl)-1H-indol-3-yl]cyclobutyl]-1H-pyrazole-4-sulfonamide], the IC50 in experiment [1] lay within 250 to 1000 nM. The same measure, in the same setting: as for `CC(NS(C)(=O)=O)C(=O)NC[C@H]1C[C@@H](c2c(-c3ccc(F)cc3)[nH]c3c(F)cc(F)cc32)C1` (mixture of isomers) [Compound 242], the figure is above 1000 nM; as for `CC(CC(=O)N[C@H]1C[C@H](c2c(-c3ccc(F)cc3)[nH]c3c(F)cc(F)cc32)C1)N1CCOCC1` (mixture of isomers) [Compound 102], above 1000 nM; as for `Fc1ccc(-c2[nH]c3c(F)cc(F)cc3c2C2CC(NC3COC3)C2)cc1` (stereo not drawn) [Compound 22], above 1000 nM.

Take `O=C1NCCC1C(=O)N[C@H]1C[C@@H](c2c(-c3ccc(F)cc3)[nH]c3c(F)cc(F)cc32)C1` (stereo partly drawn) [Compound 69]: the IC50 in experiment [1] was above 1000 nM. As to `O=C(N1CC(Cc2c(-c3ccc(F)cc3)[nH]c3c(F)cc(F)cc23)C1)C1(CO)CC1` [Compound 437, [3-[[5,7-difluoro-2-(4-fluorophenyl)-1H-indol-3-yl]methyl]azetidin-1-yl]-[1-(hydroxymethyl)cyclopropyl]methanone (Trifluoroacetate salt)], the IC50 in experiment [1] is 250 to 1000 nM. On the same count and under the same terms, as for `O=C(NC[C@H]1C[C@H](c2c(-c3ccc(F)cc3)[nH]c3c(F)cc(F)cc32)C1)c1ccc[nH]1` [Compound 314], the figure is above 1000 nM. For `O=C(CC1(O)CCCCC1)NC[C@H]1C[C@@H](c2c(-c3ccc(F)cc3)[nH]c3c(F)cc(F)cc32)C1` [Compound 316], the IC50 in experiment [1] is above 1000 nM.

The values are drawn from patent US12281102B2, “Inhibitors of APOL1 and methods of using same” (Vertex Pharmaceuticals Incorporated, priority 2020, dated 2025).
